Data published in US20230044449A1, “NICLOSAMIDE FORMULATIONS AND METHODS OF USE AS CONTRACEPTIVE” (YourChoice Therapeutics, Inc., priority 2020, published 2023).
Like-named read-outs stand apart in the source and are kept apart here.

Key:
human sperm = assay: Sperm motility of fresh human semen mixed with different concentrations of niclosamide (FIG. 1); assay type: cell-based
Experimental: FIG. 1 is a graph depicting the dose dependent effect of niclosamide dissolved in DMSO, on sperm motility. Fresh human semen samples were mixed with the different concentrations of niclosamide in vitro, followed by analysis of sperm motility within 2 minutes. The x-axis depicts the different concentrations of niclosamide mixed with the semen sample. The x-axis, from Left to Right: the gray bar depicts an untreated semen sample, the blue bar depicts a vehicle control, and the eight pink bars depict the increasing concentrations of niclosamide tested. […]
Sperm motility is a functional measurement of the sperm themselves. Sperm may be sampled either directly from semen or from washed sperm samples, and assessed for motility either manually or by CASA (Computer Assisted Sperm Analysis) (Chapter 59—Male Reproductive System. Systems Toxicologic Pathology. Dianne M. Creasy, Robert E. Chapin, in Haschek and Rousseaux's Handbook of Toxicologic Pathology (Third Edition), 2013; Amann R P et al. Computer-assisted sperm analysis (CASA): capabilities and potential developments. Theriogenology. 2014 Jan. 1; 81(1):5-17). Sperm motility (expressed as %) may be evaluated in duplicate within 1 h of semen collection, by counting moving and nonmoving sperm in several microscopic fields. […] Slow-moving sperm (class B+C) can be easily and accurately counted compared with rapidly moving (class A) sperm. […]

fresh human semen = assay: Spermicidal effect on mixing with fresh human semen (effective ranges); assay type: cell-based
Experimental: With niclosamide dissolved in DMSO, a spermicidal effect at ≥10 mM was observed. With niclosamide in formulation, a spermicidal effect at a final concentration between 5 mM and 7.5 mM or higher, was observed. The effective range for niclosamide was determined to be from 5-150 mM. Ranges of: A spermicidal effect at ≥50% (v/v/) was observed when mixing polyethylene glycol-400 (PEG-400) with fresh human semen. The effective range for PEG-400 was determined to be from 50-65%.

[1] = Saturation solubility in buffers (shake flask); assay type: physicochemical; details: 37° C., 24 hours
Experimental: Solubility was established using 100 mL of each of the chosen buffers, and was conducted using shake flask method. […] Further, the solution was agitated at 37° C. for 24 hours and checked physically for un-dissolved mass. This saturated solution was centrifuged and injected an aliquot in to the chromatograph.

[2] = Solubility in solvents/co-solvents; assay type: physicochemical
Experimental: Solubility of the drug was determined in selected solvent/co-solvents. About 10 g of the solvent was taken and small amount of drug was added in increments till 500 mg. […] These solutions were further diluted quantitatively to about test concentration and analyzed using chromatograph.

[3] = Saturation solubility in various solvents (PEG grades); assay type: physicochemical
Excerpt: Saturation solubility of niclosamide was studied in the solvents, to know the highest concentration of niclosamide that can be solubilized, as depicted in table 6. [table]

[4] = tested on: New Zealand white rabbits; assay: Vaginal irritation study, 7-day intravaginal instillation; assay type: in vivo
Experimental: Described herein is a study to assess and evaluate vaginal irritation effect of Niclosamide. A total of 9 female New Zealand white rabbits were used for the study described herein. The animals were divided into three groups of three animals in each group: Group 1 (G1) animals treated instilled/treated vehicle control; Group 2 (G2) animals instilled/treated with 2.5 mM dose of niclosamide; and Group 3 (G3) animals instilled/treated with 100 mM dose of niclosamide, as shown in Table 21.
Formulations preparation used for the study were as follows. Vehicle Preparation: 0.85% sodium chloride, 0.1% sorbic acid, 10% lactic acid and 75% water was taken in mortar and pestle and triturated, pH was adjusted to approximately 4.5 using 10 N sodium hydroxide. […] Remaining volume was adjusted with water. Total quantity was triturated again and formulation pH was confirmed with pH paper. […] Total quantity was triturated again and formulation pH was confirmed with pH paper.
Instillation of the treatment was done using prefilled FG-08 tube attached to 1 mL disposable syringe at a dose volume of 1.0 mL per animal continuously for 7 days (from day 1 to 7). Irritation potential was scored in all animals using draize scale daily before Niclosamide instillation and approximately 30 minutes after Niclosamide instillation daily from day 1 to 7 and 24 hours after last test item instillation (day 8). […]

[5] = cited from earlier work
[6] = anhydrous form; cited from earlier work
[7] = Neutral Hydrolysis (3 mL H2O at 100° C. for 8 hours)

## O=C(Nc1ccc([N+](=O)[O-])cc1Cl)c1cc(Cl)ccc1O [niclosamide]
Human sperm; concentration in formulation
  Minimum dose to see effect (inhibits sperm motility), concentration: 4 mM
Human sperm; fresh semen, 2 minutes, vs control sample
  effective niclosamide concentration that causes 100% decrease in number of motile sperm cells: ≥ 10 mM
Fresh human semen; niclosamide dissolved in DMSO
  concentration with spermicidal effect: ≥ 10 mM
Fresh human semen; spermicidal effect
  effective range for niclosamide: 5 to 150 mM
[1]; pH 1.2 (0.1N HCl)
  Solubility: insoluble and Nil
[1]; pH 2.0 (0.01N HCl)
  Solubility: insoluble and Nil
[1]; pH 3.0 acid phthalate buffer
  Solubility: insoluble and Nil
[1]; pH 4.0 acid phthalate buffer
  Solubility: insoluble and Nil
[1]; pH 4.5 acetate buffer
  Solubility: insoluble and Nil
[1]; pH 5.1 acetate buffer
  Solubility: insoluble and Nil
[2]; polyethylene glycol (PEG 400)
  Solubility: 47.4 mg/g
[2]; polyethylene glycol (PEG 1000)
  Solubility: 46.6 mg/g
[2]; polyethylene glycol (PEG 2000)
  Solubility: 45.6 mg/g
[3]; 10 g of PEG-400, stirring and heating at 50° C. for 40 min
  amount of API solubilised completely: 700 mg was
[3]; 10 g of PEG-1000, stirring and heating at 50° C. for 40 min
  amount of API solubilised completely: 500 mg was
[3]; 10 g of PEG-2000, stirring and heating at 50° C. for 40 min
  amount of API solubilised completely: 500 mg was
[3]; in PEG-1000, heating and stirring
  maximum solubility: 5 % w/w
[3]; in PEG-2000, heating and stirring
  maximum solubility: 5 % w/w
[4]; 2.5 and 100 mM, 1.0 mL per animal intravaginally for 7 days, female rabbits
  Clinical Signs and Mortality: No treatment related mortality and adverse clinical signs
[4]; rabbit, in vivo
  Gross Pathology of vagina: reddened at central lower half to caudal area mildly in all animals belonging to all groups
[5]; Acid Hydrolysis (3 mL HCl at 100° C. for 8 hours)
  % Degradation: No degradation
[5]; Alkaline Hydrolysis (0.1N NaOH at 100° C. for 2 hours)
  potency after degradation: decreased to 97%
[5]; Alkaline Hydrolysis (0.1N NaOH at 100° C. for 2 hours), listed as drug substance
  % Degradation: prone to alkaline hydrolysis
[5]; [7]
  % Degradation, Impurity 1: Impurity 1-0.02%
  % Degradation, Impurity 2: Impurity 2-0.03%
[5]; No stress Conditions
  % Degradation, Impurity 3: Impurity 3-0.04%
[5]; Oxidative Hydrolysis (3 mL H2O2 at 100° C. for 8 hours)
  % Degradation: No degradation
[5]; Temperature Effect (100° C. for 8 hours)
  % Degradation: No degradation
[5]; UV Exposure for 7 days
  % Degradation: No degradation
[6]
  water solubility: about 13.32 μg/mL
